ChEMBL document CHEMBL5214928, “DEAD-Box Helicase DDX3X as a Host Target against Emerging Viruses: New Insights for Medicinal Chemical Approaches” (J Med Chem, 2022)

Columns and labels:
[1] = molecular target: T1, ATP-dependent RNA helicase DDX3X (Homo sapiens, UniProt O00571); experiment: Binding affinity to DDX3X (unknown origin) assessed as inhibition constant
[2] = Selectivity index, ratio of CC50 for African green monkey Vero cells to EC50 for RSV infected in African green monkey Vero cells; type: toxicity; conditions: read-out: Ratio CC50/EC50
[3] = tested on: Huh-7; experiment: Cytotoxicity against human Huh-7 cells assessed as reduction in cell viability; type: functional
[4] = tested on: Human respirovirus 3; experiment: Antiviral activity against hPIV-3 infected in African green monkey Vero cells assessed as reduction in viral replication incubated for 22 hrs by plaque formation assay; type: functional, organism-based; conditions: Human respirovirus 3, Vero
[5] = Selectivity index, ratio of CC50 for African green monkey Vero cells to EC50 for DENV-2 infected in African green monkey Vero cells; type: toxicity; conditions: read-out: Ratio CC50/EC50
[6] = Selectivity index, ratio of CC50 for African green monkey Vero cells to EC50 for WNV infected in African green monkey Vero cells; type: toxicity; conditions: read-out: Ratio CC50/EC50
[7] = Selectivity index, ratio of CC50 for African green monkey Vero cells to EC50 for ZIKV infected in African green monkey Vero cells; type: toxicity; conditions: read-out: Ratio CC50/EC50
[8] = tested on: Hepatitis C virus; experiment: Antiviral activity against HCV-1 infected in human Huh-7 cells assessed as reduction in viral replication; type: functional, organism-based, Hepacivirus hominis; conditions: genotype 1, Huh-7
[9] = tested on: Respiratory syncytial virus; experiment: Antiviral activity against RSV infected in African green monkey Vero cells assessed as reduction in viral replication incubated for 22 hrs by plaque formation assay; type: functional, organism-based; conditions: human respiratory syncytial virus
[10] = Selectivity index, ratio of CC50 for human Huh-7 cells to EC50 for HCV-1 infected in human Huh-7 cells; type: toxicity, cell-based; conditions: read-out: Ratio CC50/EC50
[11] = Half life in mouse administered intraperitoneally; type: ADME; conditions: in vivo, route ip
[12] = tested on: West Nile virus; experiment: Antiviral activity against WNV infected in African green monkey Vero cells assessed as reduction in viral replication incubated for 22 hrs by plaque formation assay; type: functional, organism-based
[13] = Cytotoxicity against African green monkey Vero E6 cells assessed as reduction in cell viability; type: toxicity, cell-based, Vero C1008; conditions: chlorocebus sabaeus
[14] = tested on: Zika virus; experiment: Antiviral activity against ZIKV infected in African green monkey Vero cells assessed as reduction in viral replication incubated for 22 hrs by plaque assay; type: functional, organism-based
[15] = tested on: dengue virus type 2; experiment: Antiviral activity against DENV-2 infected in African green monkey Vero cells assessed as reduction in viral replication incubated for 22 hrs by plaque assay; type: functional, organism-based
[16] = Selectivity index, ratio of CC50 for African green monkey Vero cells to EC50 for hPIV-3 infected in African green monkey Vero cells; type: toxicity; conditions: read-out: Ratio CC50/EC50
[17] = Cytotoxicity against African green monkey Vero cells assessed as reduction in cell viability incubated for 22 hrs by XTT assay; type: toxicity, cell-based; conditions: chlorocebus sabaeus
[18] = tested on: SARS-CoV-2; experiment: Antiviral activity against SARS-CoV-2 isolate 2019-nCoV/Italy-INMI1 infected in African green monkey Vero E6 cells assessed as reduction in viral replication at MOI of 0.01 incubated for 5 days by qRT-PCR analysis; type: functional, organism-based; conditions: Severe acute respiratory syndrome coronavirus 2, 2019-nCoV/Italy-INMI1, Vero C1008, 120 h
[19] = Selectivity index, ratio of CC50 for hamster BHK-21 cells to EC50 for JEV SA14-14-2 infected in hamster BHK-21 cells; type: toxicity, cell-based; conditions: read-out: Ratio CC50/EC50
[20] = tested on: Japanese encephalitis virus; experiment: Antiviral activity against JEV SA14-14-2 infected in hamster BHK-21 cells assessed as reduction in viral replication by plaque formation assay; type: functional, organism-based; conditions: SA14-14-2, BHK-21
[21] = Cytotoxicity against hamster BHK-21 cells assessed as reduction in cell viability at MOI of 0.01 incubated for 48 hrs by plaque formation assay; type: toxicity, cell-based, Mesocricetus auratus
[22] = molecular target: T1, ATP-dependent RNA helicase DDX3X; experiment: Inhibition of recombinant DDX3X (unknown origin) helicase activity using 6-FAM-labeled dsRNA as substrate incubated for 30 mins by fluorescence based assay
[23] = Selectivity index, ratio of CC50 for human HeLa cells to EC50 for recombinant HIV-1 infected in CD4+ human HeLa cells; type: toxicity, cell-based; conditions: read-out: Ratio CC50/EC50
[24] = tested on: HeLa; experiment: Cytotoxicity against human HeLa cells assessed as reduction in cell viability incubated for 72 hrs with replacement of medium containing compound for every 24 hrs by MTS based Cell Titer 96 viability assay; type: functional
[25] = tested on: Human immunodeficiency virus 1; experiment: Antiviral activity against recombinant HIV-1 infected in CD4+ human HeLa cells assessed as reduction in viral replication; type: functional, organism-based; conditions: Human immunodeficiency virus 1, HeLa
[26] = molecular target: T1, ATP-dependent RNA helicase DDX3X; experiment: Inhibition of DDX3X (unknown origin) helicase activity
[27] = Half life in mouse administered intravenously; type: ADME; conditions: in vivo, route iv
[28] = Cytotoxicity against human LucUbiNeo-ET cells assessed as reduction in cell viability by MTT assay; type: functional
[29] = tested on: Hepatitis C virus; experiment: Antiviral activity against HCV-1 infected in human LucUbiNeo-ET cells assessed as reduction in viral replication incubated for 2 days by luminometry; type: functional, organism-based, Hepacivirus hominis; conditions: genotype 1, LucUbiNeo-ET, 48 h
[30] = Selectivity index, ratio of CC50 for human LucUbiNeo-ET cells to EC50 for HCV-1 infected in human LucUbiNeo-ET cells; type: toxicity, cell-based; conditions: read-out: Ratio CC50/EC50
[31] = tested on: West Nile virus; experiment: Antiviral activity against WNV infected in human Huh-7 cells assessed as reduction in viral replication; type: functional, organism-based
[32] = tested on: Hepatitis C virus; experiment: Antiviral activity against HCV-1 infected in hepatoma cells (unknown origin) assessed as reduction in viral replication; type: functional, organism-based, Hepacivirus hominis; conditions: genotype 1, Hepatoma cell line
[33] = tested on: Hepatoma cell line; experiment: Cytotoxicity against hepatoma cells (unknown origin) assessed as reduction in cell viability; type: functional
[34] = Selectivity index, ratio of CC50 for hepatoma cells (unknown origin) to EC50 for HCV-1 infected in hepatoma cells (unknown origin); type: toxicity, cell-based; conditions: read-out: Ratio CC50/EC50
[35] = Selectivity index, ratio of CC50 for human Huh-7 cells to EC50 for WNV infected in human Huh-7 cells; type: toxicity, cell-based; conditions: read-out: Ratio CC50/EC50
[36] = tested on: Human immunodeficiency virus 1; experiment: Antiviral activity against HIV-1 NL4-3 infected in human H9 cells assessed as reduction in viral replication at MOI of 0.03 measured after 48 hrs by Bright-Glo Luciferase Assay; type: functional, organism-based; conditions: Human immunodeficiency virus 1, NL4-3, H9, 48 h
[37] = Selectivity index, ratio of CC50 for human H9 cells to EC50 for HIV-1 NL4-3 infected in human H9 cells; type: toxicity, cell-based; conditions: read-out: Ratio CC50/EC50
[38] = tested on: H9; experiment: Cytotoxicity against human H9 cells assessed as reduction in cell viability incubated for 72 hrs by luciferase based assay; type: functional

T1 sequence (O00571 whole entry): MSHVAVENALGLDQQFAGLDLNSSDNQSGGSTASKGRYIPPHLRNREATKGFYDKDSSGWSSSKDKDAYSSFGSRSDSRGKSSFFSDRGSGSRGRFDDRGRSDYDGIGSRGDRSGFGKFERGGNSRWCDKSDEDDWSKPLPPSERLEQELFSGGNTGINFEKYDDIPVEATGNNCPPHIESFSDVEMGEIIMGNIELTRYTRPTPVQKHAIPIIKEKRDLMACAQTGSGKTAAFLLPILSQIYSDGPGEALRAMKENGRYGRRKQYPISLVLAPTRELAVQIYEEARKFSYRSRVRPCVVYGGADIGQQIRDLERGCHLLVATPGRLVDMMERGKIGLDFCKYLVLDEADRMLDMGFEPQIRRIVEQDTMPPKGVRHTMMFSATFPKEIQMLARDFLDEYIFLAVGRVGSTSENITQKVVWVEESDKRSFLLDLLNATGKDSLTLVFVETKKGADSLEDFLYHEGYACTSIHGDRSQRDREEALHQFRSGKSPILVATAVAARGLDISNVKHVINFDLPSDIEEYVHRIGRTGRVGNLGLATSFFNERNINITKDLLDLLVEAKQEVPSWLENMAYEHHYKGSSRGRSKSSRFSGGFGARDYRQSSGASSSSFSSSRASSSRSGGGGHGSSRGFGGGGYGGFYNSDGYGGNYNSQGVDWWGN

## COc1cc(/C=C2\SC(=S)N(CCC(=O)Nc3ccccc3O)C2=O)cc(OC)c1OC
[1]
  Ki: 3.9 µM

## COc1ccc(/C=C2\SC(=S)N(CCC(=O)Nc3cccc(O)c3)C2=O)cc1
[1]
  Ki: 2 µM

## COc1ccc(Cn2c3ncnc4c(ncn4Cc4ccc(OC)cc4)c-3nc2=O)cc1
[2]
  selectivity ratio: 2.2
[3]
  CC50: < 10 µM
[4]
  EC50: 28.2 µM
[5]
  selectivity ratio: 3.5
[6]
  selectivity ratio: 3.5
[7]
  selectivity ratio: 4.2
[8]
  EC50: 2 µM
[9]
  EC50: 13.4 µM
[10]
  selectivity ratio: < 5
[11]
  half-life: 7 h
[12]
  EC50: 8.5 µM
[13]
  CC50: > 30 µM
[14]
  EC50: 7 µM
[15]
  EC50: 8.5 µM
[16]
  selectivity ratio: 1
[17]
  CC50 at 22 h: 29.7 µM
[18]
  EC50: < 5 µM

## Cc1ccccc1NC(=O)Nc1cccc([N+](=O)[O-])c1
[19]
  selectivity ratio: > 5
[20]
  EC50: 10 µM
[21]
  CC50 at 48 h: > 50 µM

## O=[N+]([O-])c1cccc(S(=O)(=O)Nc2ccccc2O)c1
[22]
  IC50: 0.36 µM

## O=C(CCN1C(=O)/C(=C/c2cccc(Br)c2)SC1=S)Nc1cccc(O)c1
[1]
  Ki: 90 µM

## OCCc1cc(Nc2ccc(F)cc2)nc(N/N=C/c2ccccc2O)n1
[23]
  selectivity ratio: 10
[24]
  CC50: 65 µM
[25]
  EC50: 6.5 µM

## Oc1ccccc1/C=N/Nc1nc(Nc2cccc(Cl)c2)nc(NN2CCOCC2)n1
[1]
  Ki: 0.4 µM

## COc1cccc(NC(=O)CCN2C(=O)/C(=C/c3ccccc3O)SC2=S)c1
[1]
  Ki: 10 µM

## Cc1ccccc1NC(=O)Nc1ccc(-n2cc(CO)nn2)cc1
[26]
  Ki: 17.5 µM

## C(=N\Nc1nc(Nc2ccccc2)nc(Nc2ccccc2)n1)/c1ccccc1
[1]
  Ki: 7.5 µM

## CC(C)Cc1cn(-c2ccc(NC(=O)Nc3ccc4cnccc4c3)cc2)nn1
[27]
  half-life: 5 h
[26]
  IC50: 0.15 µM
[28]
  CC50: > 312 µM
[29]
  EC50: 0.9 µM
[30]
  selectivity ratio: 94

## CCCCCCCCCCCCCCCCCCNC1=NC(=O)C2C(N=CN2[C@@H]2O[C@H](CO)[C@@H](O)[C@H]2O)C(=O)N1 (some centres undefined)
[3]
  CC50: > 100 µM
[31]
  EC50: 0.51 µM
[32]
  EC50: 18 µM
[33]
  CC50: > 630 µM
[34]
  selectivity ratio: > 35
[35]
  selectivity ratio: > 195

## Oc1ccc(Cl)cc1/C=N/Nc1nc(NCc2ccccc2)nc(NN2CCOCC2)n1
[1]
  Ki: 1.9 µM

## COc1cc(/C=C2\SC(=S)N(CCC(=O)Nc3ccccc3Cl)C2=O)cc(OC)c1OC
[1]
  Ki: 0.1 µM

## COc1ccc(/C=C2\SC(=S)N(CCC(=O)Nc3ccccc3OC)C2=O)cc1
[1]
  Ki: 11 µM

## O=[N+]([O-])c1cccc(/C=N/Nc2nc(NCc3ccccc3)nc(NNc3ccc(F)cc3)n2)c1O
[1]
  Ki: 4 µM

## O=C(CCN1C(=O)/C(=C/c2ccc3c(c2)OCO3)SC1=S)Nc1ccccc1[N+](=O)[O-]
[1]
  Ki: 1 µM

## O=C(NCCN1C(=O)/C(=C/c2ccccc2O)SC1=S)c1cccc(Br)c1
[1]
  Ki: 4.2 µM

## O=C(O)c1cc(Nc2nc3ccccc3[nH]2)ccc1O
[22]
  IC50: 0.2 µM

## Cc1ccc(Nc2nc(N/N=C/c3ccccc3O)nc(NN3CCOCC3)n2)cc1Cl
[1]
  Ki: 1.6 µM

## CCCCc1cn(-c2ccc(NC(=O)Nc3ccccc3C(F)(F)F)cc2)nn1
[11]
  half-life: 5 h

## CCCCc1cn(-c2ccc(NC(=O)Nc3ccccc3OC3CCCC3)cc2)nn1
[26]
  IC50: 0.14 µM

## CC(C)Cc1cn(-c2ccc(NC(=O)Nc3ccccc3F)cc2)nn1
[26]
  IC50: 0.12 µM

## Cc1cccc(NC(=O)CCN2C(=O)/C(=C/c3ccccc3O)SC2=S)c1
[1]
  Ki: 97 µM

## Oc1ccccc1/C=N/Nc1nc(NCc2ccccc2)nc(NN2CCOCC2)n1
[1]
  Ki: 0.6 µM

## O=C1S/C(=C\c2c(NCCO)nc3ccccn3c2=O)C(=O)N1CCc1ccccc1
[1]
  Ki: 0.2 µM

## CCN(CC)Nc1nc(N/N=C/c2ccccc2O)nc(Nc2ccccc2)n1
[1]
  Ki: 0.1 µM

## CC(=O)Nc1ccc(/C=N/Nc2nc(Nc3ccccc3)nc(Nc3ccccc3)n2)cc1
[23]
  selectivity ratio: 5
[24]
  CC50: 10 µM
[25]
  EC50: 2 µM
[1]
  Ki: 0.3 µM

## O=C(CCN1C(=O)/C(=C/c2cccc(F)c2)SC1=S)Nc1ccccc1O
[1]
  Ki: 7.6 µM

## CCCCc1cn(-c2ccc(NC(=O)Nc3ccccc3F)cc2)nn1
[26]
  IC50: 0.6 µM

## O=C(CCN1C(=O)/C(=C/c2ccccc2O)SC1=S)Nc1cc(F)cc(F)c1
[1]
  Ki: 0.5 µM

## CCCCc1cn(-c2ccc(NC(=O)Nc3ccc(C)nc3)cc2)nn1
[26]
  IC50: 1.5 µM

## CC(=O)Nc1ccc(/C=N/Nc2nc(NCc3ccccc3)nc(Nc3ccccc3)n2)cc1
[1]
  Ki: 0.5 µM

## CC(=O)Nc1ccc(/C=N/Nc2nc(Nc3ccccc3)nc(NN3CCOCC3)n2)cc1
[1]
  Ki: 2.2 µM

## O=C(CCN1C(=O)/C(=C/c2ccccc2O)SC1=S)Nc1cccc(F)c1
[23]
  selectivity ratio: 7
[24]
  CC50: 50 µM
[25]
  EC50: 7.5 µM
[1]
  Ki: 0.3 µM
[13]
  CC50: > 100 µM
[18]
  EC50: < 5 µM

## CC(C)Cc1cn(-c2ccc(NC(=O)Nc3cccc(F)c3)cc2)nn1
[26]
  IC50: 0.2 µM

## O=C(NCCN1C(=O)/C(=C/c2ccccc2O)SC1=S)c1cccc(F)c1
[1]
  Ki: 4.3 µM

## Oc1ccccc1/C=N/Nc1nc(NCc2ccc(F)cc2)nc(NN2CCOCC2)n1
[1]
  Ki: 0.7 µM

## O=C(O)c1ccccc1C(=O)Nc1nnc(-c2ccc(O)cc2)s1
[36]
  EC50: 2.8 µM
[37]
  selectivity ratio: 45
[38]
  CC50: 125 µM
